This passage reports melting point and Ki results from patent US20060173015A1, “Cyclohexyldiamines as selective alpha 1a/1d adrenoreceptor antagonists for the treatment of benign prostatic hypertrophy and lower urinary tract symptoms” (priority 2004, published 2006).

In data set [1] the target is T1, α1d-AR (Homo sapiens, UniProt P25100).
T1 construct: expressed in transfected cells; host or cells: COS-7
T1 sequence (P25100 1-572): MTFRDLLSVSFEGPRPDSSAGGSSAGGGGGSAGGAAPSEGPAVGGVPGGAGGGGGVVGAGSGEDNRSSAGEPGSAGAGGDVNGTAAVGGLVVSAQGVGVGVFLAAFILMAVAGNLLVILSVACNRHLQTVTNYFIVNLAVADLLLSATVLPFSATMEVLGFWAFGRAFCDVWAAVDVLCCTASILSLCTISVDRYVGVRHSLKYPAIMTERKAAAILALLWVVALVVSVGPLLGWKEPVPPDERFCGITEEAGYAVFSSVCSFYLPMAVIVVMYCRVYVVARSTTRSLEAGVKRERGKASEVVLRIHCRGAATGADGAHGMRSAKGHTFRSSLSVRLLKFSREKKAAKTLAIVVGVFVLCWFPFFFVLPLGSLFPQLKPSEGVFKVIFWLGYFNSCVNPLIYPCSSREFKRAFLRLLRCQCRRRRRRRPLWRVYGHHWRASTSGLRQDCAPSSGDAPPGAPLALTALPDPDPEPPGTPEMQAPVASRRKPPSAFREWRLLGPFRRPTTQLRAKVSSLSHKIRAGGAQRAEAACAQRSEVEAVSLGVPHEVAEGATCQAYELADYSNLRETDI
Description: α1-Adrenergic receptor radio-ligand (125I-HEAT) binding assay, α1d subtype. As to conditions: COS-7 cell membranes, 125I-HEAT; read-out: Receptor Binding, Ki α1d-AR.

In data set [2] the target is T2, α1b-AR (Homo sapiens, UniProt P35368).
T2 sequence (P35368 1-520): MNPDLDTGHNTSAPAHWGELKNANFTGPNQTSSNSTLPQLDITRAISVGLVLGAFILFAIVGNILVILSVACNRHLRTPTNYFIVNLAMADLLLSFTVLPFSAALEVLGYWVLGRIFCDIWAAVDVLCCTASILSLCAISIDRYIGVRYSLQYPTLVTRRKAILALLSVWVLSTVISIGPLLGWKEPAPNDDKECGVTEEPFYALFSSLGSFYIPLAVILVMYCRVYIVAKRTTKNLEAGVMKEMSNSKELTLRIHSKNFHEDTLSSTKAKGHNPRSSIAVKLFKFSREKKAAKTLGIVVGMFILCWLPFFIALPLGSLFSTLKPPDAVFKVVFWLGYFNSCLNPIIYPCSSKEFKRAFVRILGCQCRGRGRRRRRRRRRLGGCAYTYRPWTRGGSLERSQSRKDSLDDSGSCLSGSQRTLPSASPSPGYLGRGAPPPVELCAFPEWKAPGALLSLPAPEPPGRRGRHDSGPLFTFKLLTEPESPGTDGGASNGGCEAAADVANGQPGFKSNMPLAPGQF
The data set is described as follows: α1-Adrenergic receptor radio-ligand (125I-HEAT) binding assay, α1b subtype. As to conditions: Receptor Binding, Ki α1b-AR, COS-7 cell membranes, 125I-HEAT.

Data set [3] concerns the target T3, α1a-AR (Homo sapiens, UniProt P35348).
T3 construct: expressed in transfected cells; host or cells: COS-7
T3 sequence (P35348 1-466): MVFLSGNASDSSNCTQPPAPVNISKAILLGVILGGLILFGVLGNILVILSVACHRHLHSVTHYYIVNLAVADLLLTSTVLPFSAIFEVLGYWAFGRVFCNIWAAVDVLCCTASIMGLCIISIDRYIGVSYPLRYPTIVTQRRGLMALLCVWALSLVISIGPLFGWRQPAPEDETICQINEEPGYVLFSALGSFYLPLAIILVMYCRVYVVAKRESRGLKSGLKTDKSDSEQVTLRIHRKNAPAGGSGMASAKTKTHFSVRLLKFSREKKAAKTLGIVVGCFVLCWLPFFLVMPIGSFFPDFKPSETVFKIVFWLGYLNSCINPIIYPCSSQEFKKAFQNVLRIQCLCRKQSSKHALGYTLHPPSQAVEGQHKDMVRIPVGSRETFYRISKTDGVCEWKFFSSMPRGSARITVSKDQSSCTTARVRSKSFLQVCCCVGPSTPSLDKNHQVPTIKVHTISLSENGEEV
The data set is described as follows: α1-Adrenergic receptor radio-ligand (125I-HEAT) binding assay, α1a subtype. The conditions noted are these: COS-7 cell membranes, 125I-HEAT. The method in brief: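 Membranes from COS-7 cells transfected with the α1a-AR were incubated with 50 pM final ¹²⁵I-HEAT and test compound (1 pM–10 μM final, half-log steps) in Tris/EDTA/NaCl buffer pH 7.4 for 1 hr at rt. Bound radioactivity was counted after GF/C filtration, in triplicate.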

Where a name gives a salt, the structure may show the parent alone.

In general, melting point refers to the temperature, or range, at which the solid turns liquid. `COc1ccc(S(=O)(=O)N[C@H]2CC[C@H](N3CCN(c4cc(F)ccc4OCC(F)(F)F)CC3)CC2)cc1OC` (as salt: fumarate) [Cpd 84, N-trans-(4-{4-[5-Fluoro-2-(2,2,2-trifluoro-ethoxy)-phenyl]-piperazin-1-yl}-cyclohexyl)-3,4-dimethoxy-benzenesulfonamide] showed a melting point of 185 °C.

Regarding `COc1ccc(S(=O)(=O)N[C@H]2CC[C@@H](N3CCN(c4cc(F)ccc4OCC(F)(F)F)CC3)CC2)cc1OC` (as salt: fumarate) [Cpd 83, N-cis-(4-{4-[5-Fluoro-2-(2,2,2-trifluoro-ethoxy)-phenyl]-piperazin-1-yl}-cyclohexyl)-3,4-dimethoxy-benzenesulfonamide], the melting point was 232 °C.

For orientation: Ki means the equilibrium dissociation constant of an inhibitor or competing ligand from its target. `CC(C)Oc1ccccc1N1CCN([C@H]2CC[C@H](NS(=O)(=O)c3ccc(F)c(Cl)c3)CC2)CC1` [Cpd 42, 3-Chloro-4-fluoro-N-trans-{4-[4-(2-isopropoxy-phenyl)-piperazin-1-yl]-cyclohexyl}-benzenesulfonamide]: the results for the Ki in data set [1], in data set [2] and in data set [3] were 0.072 µM, 2.3 µM and 0.0066 µM, respectively.

With `Cc1ccc(S(=O)(=O)N[C@H]2CC[C@H](N3CCN(c4ccccc4OC(C)C)CC3)CC2)cc1Cl` [Cpd 46, 3-Chloro-N-trans-{4-[4-(2-isopropoxy-phenyl)-piperazin-1-yl]-cyclohexyl}-4-methyl-benzenesulfonamide], the inhibition constant (Ki) in data set [1] was 0.016 µM; in data set [2] it was 0.193 µM; in data set [3], 0.0015 µM.

Regarding `CC(C)Oc1ccccc1N1CCN([C@H]2CC[C@H](NS(=O)(=O)c3ccccc3C(F)(F)F)CC2)CC1` [Cpd 41, N-trans-{4-[4-(2-Isopropoxy-phenyl)-piperazin-1-yl]-cyclohexyl}-2-trifluoromethyl-benzenesulfonamide], the Ki came out at 0.246 µM in data set [1], 0.844 µM in data set [2] and 0.0181 µM in data set [3].

`CCN([C@H]1CC[C@H](N2CCN(c3ccccc3OC(C)C)CC2)CC1)S(=O)(=O)c1ccc(OC)c(OC)c1` [Cpd 68, N-Ethyl-N-trans-{4-[4-(2-isopropoxy-phenyl)-piperazin-1-yl]-cyclohexyl}-3,4-dimethoxy-benzenesulfonamide]: the inhibitory constant (Ki) in data set [1] amounted to 0.0067 µM; in data set [2], 0.109 µM; in data set [3], 0.023 µM.

Turning to `CC(C)Oc1ccccc1N1CCN([C@H]2CC[C@H](NS(=O)(=O)c3cccc(F)c3)CC2)CC1` [Cpd 50, 3-Fluoro-N-trans-{4-[4-(2-isopropoxy-phenyl)-piperazin-1-yl]-cyclohexyl}-benzenesulfonamide], the Ki in data set [1] was 0.0245 µM; in data set [2] it was 0.545 µM; in data set [3] it was 0.00073 µM.

With `CC(C)Oc1ccccc1N1CCN([C@H]2CC[C@H](NS(=O)(=O)c3cnc(Cl)c(Br)c3)CC2)CC1` [Cpd 66, 5-Bromo-6-chloro-pyridine-3-sulfonic acid N-trans-{4-[4-(2-isopropoxy-phenyl)-piperazin-1-yl]-cyclohexyl}-amide], the inhibitory constant (Ki) in data set [1] turned out to be 0.0146 µM; in data set [2] it was 0.279 µM; in data set [3] it was 0.0035 µM.

`COc1ccc(S(=O)(=O)N[C@H]2CC[C@H](N3CCN(c4ccc(F)cc4OCC(F)(F)F)CC3)CC2)cc1OC` [Cpd 80, N-trans-(4-{4-[4-Fluoro-2-(2,2,2-trifluoro-ethoxy)-phenyl]-piperazin-1-yl}-cyclohexyl)-3,4-dimethoxy-benzenesulfonamide]: the figures for the Ki in data set [1], in data set [2] and in data set [3] were 0.038 µM, 0.087 µM and 0.021 µM, respectively.

As to `CC(C)Oc1ccccc1N1CCN([C@H]2CC[C@H](NS(=O)(=O)c3ccc(Cl)cc3Cl)CC2)CC1` [Cpd 29, 2,4-Dichloro-N-trans-{4-[4-(2-isopropoxy-phenyl)-piperazine-1-yl]-cyclohexyl}-benzenesulfonamide], the values for the Ki in data set [1], in data set [2] and in data set [3] were 0.0086 µM, 0.596 µM and 0.0016 µM, respectively.

Consider `CC(C)Oc1ccccc1N1CCN([C@H]2CC[C@@H](NS(=O)(=O)c3ccccc3S(C)(=O)=O)CC2)CC1` [Cpd 5, N-cis-{4-[4-(2-Isopropoxy-phenyl)-piperazin-1-yl]-cyclohexyl}-2-methanesulfonyl-benzenesulfonamide], for which the inhibition constant Ki in data set [1] was found to be 0.0028 µM; in data set [2], 0.118 µM; in data set [3] it was 0.0125 µM.

Consider `Cc1c(Cl)cccc1S(=O)(=O)N[C@H]1CC[C@@H](N2CCN(c3ccccc3OC(C)C)CC2)CC1` [Cpd 11, 3-Chloro-N-cis-{4-[4-(2-isopropoxy-phenyl)-piperazin-1-yl]-cyclohexyl}-2-methyl-benzenesulfonamide], for which the inhibitory constant (Ki) worked out at 0.0011 µM in data set [1], 0.129 µM in data set [2] and 0.018 µM in data set [3].

As for `CC(C)Oc1ccccc1N1CCN([C@H]2CC[C@@H](NS(=O)(=O)c3ccc(F)c(Cl)c3)CC2)CC1` [Cpd 14, 3-Chloro-4-fluoro-N-cis-{4-[4-(2-isopropoxy-phenyl)-piperazin-1-yl]-cyclohexyl}-benzenesulfonamide], the Ki in data set [1] worked out at 0.0043 µM; in data set [2], 0.246 µM; in data set [3], 0.0116 µM.

For the compound `COc1ccc(F)cc1S(=O)(=O)N[C@H]1CC[C@@H](N2CCN(c3ccccc3OC(C)C)CC2)CC1` [Cpd 15, 5-Fluoro-N-cis-{4-[4-(2-isopropoxy-phenyl)-piperazin-1-yl]-cyclohexyl}-2-methoxy-benzenesulfonamide], the results for the Ki in data set [1], in data set [2] and in data set [3] were 0.005 µM, 0.162 µM and 0.006 µM, respectively.

Turning to `CC(C)Oc1cc(F)ccc1N1CCN([C@H]2CC[C@@H](NS(=O)(=O)c3cc(Cl)ccc3F)CC2)CC1` [Cpd 74, 5-Chloro-2-fluoro-N-cis-{4-[4-(4-fluoro-2-isopropoxy-phenyl)-piperazin-1-yl]-cyclohexyl}-benzenesulfonamide], the values for the inhibition constant Ki in data set [1], in data set [2] and in data set [3] were 0.0022 µM, 0.101 µM and 0.0056 µM, respectively.

Take `Cc1ccc(S(=O)(=O)N[C@H]2CC[C@@H](N3CCN(c4ccccc4OC(C)C)CC3)CC2)cc1Cl` [Cpd 18, 3-Chloro-N-cis-{4-[4-(2-isopropoxy-phenyl)-piperazin-1-yl]-cyclohexyl}-4-methyl-benzenesulfonamide]: the inhibition constant Ki in data set [1] came to 0.0111 µM; in data set [2], 0.167 µM; in data set [3], 0.0105 µM.

`O=S(=O)(N[C@H]1CC[C@@H](N2CCN(c3ccc(F)cc3OCC(F)(F)F)CC2)CC1)c1cc(Cl)ccc1F` [Cpd 77, 5-Chloro-2-fluoro-N-cis-(4-{4-[4-fluoro-2-(2,2,2-trifluoro-ethoxy)-phenyl]-piperazin-1-yl}-cyclohexyl)-benzenesulfonamide]: the Ki stood at 0.029 µM in data set [1], 0.206 µM in data set [2] and 0.043 µM in data set [3].

Regarding `CC(C)Oc1ccccc1N1CCN([C@H]2CC[C@H](NS(=O)(=O)Cc3ccccc3)CC2)CC1` [Cpd 62, N-trans-{4-[4-(2-Isopropoxy-phenyl)-piperazin-1-yl]-cyclohexyl}-C-phenyl-methanesulfonamide], the inhibitory constant (Ki) in data set [1] was found to be 0.012 µM; in data set [2], 0.2 µM; in data set [3], 0.0039 µM.

Turning to `CC(C)Oc1ccccc1N1CCN([C@H]2CC[C@@H](NS(=O)(=O)c3ccc(C(F)(F)F)cc3)CC2)CC1` [Cpd 9, N-cis-{4-[4-(2-Isopropoxy-phenyl)-piperazin-1-yl]-cyclohexyl}-4-trifluoromethyl-benzenesulfonamide], the results for the inhibitory constant (Ki) in data set [1], in data set [2] and in data set [3] were 0.018 µM, 0.124 µM and 0.025 µM, respectively.
